Data published in patent US11517581B2, “Zika virus protease inhibitors and methods of use thereof” (priority 2017, dated 2022).
In brackets after ≈: the same amount, converted by molar mass.

Key:
ZIKV [1] = details: recently reported; cited from earlier work
ZIKV NS2B-NS3 protease = ZIKV NS2B-NS3 protease (Zika virus, UniProt A0A024B7W1, DEL1468-1502); format: biochemical; details: 10 μM substrate; for Effect of increasing drug concentrations on protease activity: 5 nM protease
[2] = Cell viability (MTT) assay in Huh-7 cells; format: cell-based; details: human
Method: (§1) Briefly, Vero or Huh-7 cells (4×10^4 cells/well) were incubated with different concentrations of individual drug for 24 h, followed by the addition of 10 μl/well of 5 mg/ml MTT substrate. The monolayers were incubated as above for 4 h (away from light). Finally, 100 μl of 10% sodium dodecyl sulfate (SDS) with 0.01M HCl was added and further incubated at 37° C. with 5% CO2 overnight. […] Briefly, the drug compounds were diluted with serum-free MEM and added to confluent Vero cells in 96-well culture plates (4×10^4 cells/well) in triplicate for 2 h at 37° C. After incubation, the drug-containing media were removed, and ZIKV (multiplicity of infection, MOI=0.0002) was added together with fresh drug-compound media to each well. Following 1 h of adsorption at 37° C., the virus-compound mixture was removed and the cells were washed twice with MEM to remove unbound virus. Subsequently, media with antiviral compounds were added to the cells for further incubation for 6 days at 37° C. in a 5% CO2 humidified environment. CPE was examined by inverted light microscopy (Chan et al., 2016b). Thereafter, MTT substrate and SDS-HCl were added sequentially as mentioned above. The half maximal inhibitory concentration (IC50) and CC50 were calculated using Sigma plot (SPSS) in an Excel add-in ED50V10.

[3] = tested on: ZIKV (Puerto Rico strain PRVABC59); experiment: Viral load reduction assay (qRT-PCR) in Vero cells; format: cell-based, Zika virus; details: culture supernatants, Vero and Huh-7; data not shown
[4] = Cell viability (MTT) assay in Vero cells; format: cell-based; details: African green monkey
Method: as §1

ZIKV [5] = details: literature; cited from earlier work
[6] = oral and parenteral; cited from earlier work
[7] = tested on: ZIKV NS2B-NS3 protease (recombinant fusion, ZIKV-NS2B residues 49-95 and ZIKV-NS3 residues 1-170); experiment: Fluorescence-based protease inhibition assay; format: biochemical, Zika virus; details: 10 μM substrate, 5 nM protease
Excerpt: The recombinant ZIKV NS2B-NS3 protease was produced as previously described with some modifications (Lei et al., 2016). Briefly, coding regions of the ZIKV-NS2B (residues 49-95) and ZIKV-NS3 (residues 1-170) genes were fused and cloned into the pET-28b(+) expression vector (Novagen, Merck & Co., New Jersey, USA). The plasmid was transformed into Escherichia coli strain BL21 (DE3) and overexpressed in 2×YT medium. When the OD600 of the culture reached 0.8, overexpression of the ZIKV NS2B-NS3 protease gene was induced for overnight by addition of 0.5 mM IPTG at 20° C. […] The purified protein was detected by Western blot using anti-His-tag antibodies. Concentration of protein was determined by Bradford protein assay kit (Bio-Rad Laboratories, California, USA) using bovine serum albumin as standard.
The recombinant ZIKV NS2B-NS3 protease was produced as previously described with some modifications (Lei et al., 2016). To detect ZIKV NS2B-NS3 protease activity, a fluorescence-based enzymatic assay was conducted in 96-well black micro-plates (Greiner Bio-One, Kremsmünster, Germany). […] The fluorescence signal from the released AMC was measured at 460 nm with excitation at 360 nm, using a VICTOR™ X3 multilabel plate reader (Perkin Elmer, Massachusetts, USA). […] After 10 min, the fluorescence intensity was measured. […]

Sequence of ZIKV NS2B-NS3 protease (A0A024B7W1 1502-1672, added parts left off, stated change not applied): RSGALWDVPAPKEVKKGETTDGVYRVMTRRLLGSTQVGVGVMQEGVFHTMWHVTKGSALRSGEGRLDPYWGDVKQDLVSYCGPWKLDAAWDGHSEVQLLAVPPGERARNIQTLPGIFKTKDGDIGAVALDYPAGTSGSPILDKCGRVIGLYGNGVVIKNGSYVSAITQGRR

CC[C@H]1OC(=O)[C@H](C)[C@@H](O[C@H]2C[C@@](C)(OC)[C@@H](O)[C@H](C)O2)[C@H](C)[C@@H](O[C@@H]2O[C@H](C)C[C@H](N(C)C)[C@H]2O)[C@](C)(O)C[C@@H](C)CN(C)[C@H](C)[C@@H](O)[C@]1(C)O [Azithromycin]
In vitro anti-ZIKV effects (ZIKV [1]): in vitro anti-ZIKV effects

CCN(CC)CCCC(C)Nc1ccnc2cc(Cl)ccc12 (centres unmarked) [Chloroquine]
In vitro anti-ZIKV effects (ZIKV [1]): in vitro anti-ZIKV effects

CCCCCCCCCC(=O)N[C@@H](Cc1c[nH]c2ccccc12)C(=O)N[C@H](CC(N)=O)C(=O)N[C@@H](CC(=O)O)C(=O)N[C@@H]1C(=O)NCC(=O)N[C@@H](CCCN)C(=O)N[C@@H](CC(=O)O)C(=O)N[C@H](C)C(=O)N[C@@H](CC(=O)O)C(=O)NCC(=O)N[C@H](CO)C(=O)N[C@@H]([C@H](C)CC(=O)O)C(=O)N[C@@H](CC(=O)c2ccccc2N)C(=O)O[C@@H]1C [Daptomycin]
In vitro anti-ZIKV effects (ZIKV [1]): in vitro anti-ZIKV effects

N=C(N)NCCC[C@H](NC(=O)[C@@H]1CCCN1C(=O)[C@@H]1CSSCCC(=O)N[C@@H](Cc2ccc(O)cc2)C(=O)N[C@@H](Cc2ccccc2)C(=O)N[C@@H](CCC(N)=O)C(=O)N[C@@H](CC(N)=O)C(=O)N1)C(=O)NCC(N)=O [Desmopressin acetate]
Effect of increasing drug concentrations on protease activity (ZIKV NS2B-NS3 protease): dose-dependent reduction in protease activity

CC[C@H](C)[C@H]1O[C@]2(CC[C@@H]1C)C[C@@H]1C[C@@H](C/C=C(\C)[C@@H](O[C@H]3C[C@H](OC)[C@@H](O[C@H]4C[C@H](OC)[C@@H](O)[C@H](C)O4)[C@H](C)O3)[C@@H](C)/C=C/C=C3\CO[C@@H]4[C@H](O)C(C)=C[C@@H](C(=O)O1)[C@]34O)O2 [Ivermectin]
In vitro anti-ZIKV effects (ZIKV [1]): in vitro anti-ZIKV effects

OC(c1cc(C(F)(F)F)nc2c(C(F)(F)F)cccc12)C1CCCCN1 (centres unmarked) [Mefloquine]
In vitro anti-ZIKV effects (ZIKV [1]): in vitro anti-ZIKV effects

O=C(Nc1ccc([N+](=O)[O-])cc1Cl)c1cc(Cl)ccc1O [Niclosamide]
In vitro anti-ZIKV effects (ZIKV [1]): in vitro anti-ZIKV effects

CO[C@H]1/C=C/O[C@@]2(C)Oc3c(C)c(O)c4c(O)c(c(/C=N/N5CCN(C)CC5)c(O)c4c3C2=O)NC(=O)/C(C)=C\C=C\[C@H](C)[C@H](O)[C@@H](C)[C@@H](O)[C@@H](C)[C@H](OC(C)=O)[C@@H]1C [Rifampicin]
CC50 at 24 h [2]: 400 µg/mL (≈ 486 µM) | Dose-dependent reduction in virus titer observed [3]: not | Effect of increasing drug concentrations on protease activity (ZIKV NS2B-NS3 protease): dose-dependent reduction in protease activity | CC50 at 24 h [4]: 400 µg/mL (≈ 486 µM)

CC(C)OC(=O)[C@H](C)N[P@](=O)(OC[C@H]1O[C@@H](n2ccc(=O)[nH]c2=O)[C@](C)(F)[C@@H]1O)Oc1ccccc1 [Sofosbuvir]
In vitro anti-ZIKV effects (ZIKV [1]): in vitro anti-ZIKV effects | Efficacy in animal models (ZIKV [5]): effective in animal models

O=C(Nc1ccc([N+](=O)[O-])cc1Cl)c1cc(Cl)ccc1O [niclosamide]
Solubility [6]: insoluble

Aprotinin [listing 1 of 2 here]
IC50 (vs protease activity) (ZIKV NS2B-NS3 protease; 5 nM ZIKV NS2B-NS3 protease, positive control): 13.6 ± 1.1 KIU/ml

Aprotinin [listing 2 of 2 here]
Reduction in protease activity with increasing concentrations [7]: blocked the protease cleavage activity

Octreotide acetate
Effect of increasing drug concentrations on protease activity (ZIKV NS2B-NS3 protease): dose-dependent reduction in protease activity
